Source: patent publication US10130682B2, “Methods of using pigment epithelium derived factor (PEDF) for the treatment and prevention of agent-induced gonadal or uterine toxicity” (Ramot at Tel-Aviv University Ltd., priority 2014, dated 2018)

Key:
[1] = test system: PEDF mRNA; experiment: PEDF mRNA level (qPCR) in ovaries of superovulated mice treated with DXR; assay type: in vivo, mouse; conditions: DXR 6 mg/kg IV vs saline; superovulated 7 weeks ICR female mice
Experimental: FIG. 1A is an illustration depicting the experimental setting: 7 weeks ICR female mice (n=5/group) were treated for superovulation with the standard pregnant mares' serum/human chorionic gonadotropin (PMSG/hCG) protocol [Ben-Aharon et al. Reproductive Biology and Endocrinology: RB&E (2010) 8: 20]. Twenty four hours post PMSG mice were administrated with DXR or saline (control). Ovaries were retrieved twenty four hours post hCG. […] Total RNA was extracted from the ovaries and changes in PEDF mRNA (relative quantification; RQ) level were measured by qPCR using specific primers for PEDF (SEQ ID NOs: 10-11); calibrated with HPRT (SEQ ID NOs: 6-7).
DXR damage was evaluated in 7 weeks ICR female mice following treatment for superovulation with pregnant mares' serum (PMSG, 7 IU) SC on day 0 and human chorionic gonadotropin (hCG, […]) SC on day 2. On day 1, mice were administered with DXR (6 mg/kg) or saline (control) IV. Mice ovaries were retrieved on day 3 (FIG. 1A). […]
Total RNA was isolated from various tissues (ovaries, eyes) or from granulosa cells, using Trizol reagent (Invitrogen) according to manufacturer's instructions, and quantified with the Nano-Drop spectrophotometer (ND-1000; Thermo Scientific). […] DNA was amplified using 1 μl RT reaction and 50 pmol gene-specific primers in ReadyMix™ mixture (Sigma). […]

[2] = test system: PNPLA2; experiment: Uterine PNPLA2 mRNA (qPCR), prolonged tamoxifen model; assay type: in vivo, mouse; conditions: one month of tamoxifen treatment
[3] = test system: progesterone receptor (PR); experiment: Uterine PR mRNA (qPCR), prolonged tamoxifen model; assay type: in vivo, mouse; conditions: prolonged tamoxifen treatment
Experimental: DXR damage was evaluated in 7 weeks ICR female mice following treatment for superovulation with pregnant mares' serum (PMSG, 7 IU) SC on day 0 and human chorionic gonadotropin (hCG, […]) SC on day 2. On day 1, mice were administered with DXR (6 mg/kg) or saline (control) IV. Mice ovaries were retrieved on day 3 (FIG. 1A). The ability of rPEDF to overcome the destructive effect of DXR 7 weeks ICR female mice were treated with DXR (6 mg/kg) or saline (control) IV on day 0, rPEDF (2 mg/kg) or TRIS (control) was administered SC on day 1, followed by induction for superovulation with PMSG (7 IU) SC on day 4 and hCG (7 IU) SC on day 6. Mice ovaries were retrieved on day 7 (FIG. 2A). […] Mice uteri were excised at day 7. […] Mice treated with tamoxifen alone served as control. […]
Total RNA was isolated from various tissues (ovaries, eyes) or from granulosa cells, using Trizol reagent (Invitrogen) according to manufacturer's instructions, and quantified with the Nano-Drop spectrophotometer (ND-1000; Thermo Scientific). […] DNA was amplified using 1 μl RT reaction and 50 pmol gene-specific primers in ReadyMix™ mixture (Sigma). […] Changes in the level of expression of mRNA were detected by SYBR green reagent (SYBR® Green PCR Master Mix, ABI, Carlsbad, Calif., USA) along with 15 ng cDNA and specific primers, on a StepOnePlus Real-Time PCR System (Applied Biosystems, Foster City, Calif., USA).

[4] = test system: OVX ICR mice; experiment: Uterine weight, prolonged tamoxifen model in ovariectomized mice; assay type: in vivo, mouse; conditions: tamoxifen 2.5 μg/mouse 5 days per week for one month
Experimental: (§1) DXR damage was evaluated in 7 weeks ICR female mice following treatment for superovulation with pregnant mares' serum (PMSG, 7 IU) SC on day 0 and human chorionic gonadotropin (hCG, […]) SC on day 2. On day 1, mice were administered with DXR (6 mg/kg) or saline (control) IV. Mice ovaries were retrieved on day 3 (FIG. 1A). The ability of rPEDF to overcome the destructive effect of DXR 7 weeks ICR female mice were treated with DXR (6 mg/kg) or saline (control) IV on day 0, rPEDF (2 mg/kg) or TRIS (control) was administered SC on day 1, followed by induction for superovulation with PMSG (7 IU) SC on day 4 and hCG (7 IU) SC on day 6. Mice ovaries were retrieved on day 7 (FIG. 2A). […] Mice uteri were excised at day 7. […] Mice treated with tamoxifen alone served as control. […] Mice treated with tamoxifen alone served as control.
(§2) At the end of each experiment, uteri were isolated, excised and weighed.

[5] = test system: progesterone receptor (PR); experiment: Uterine PR mRNA (qPCR), sub-acute tamoxifen model; assay type: in vivo, mouse; conditions: sub-acute tamoxifen treatment
[6] = test system: VEGF; experiment: Uterine VEGF protein (western blot), prolonged tamoxifen model; assay type: in vivo, mouse; conditions: tamoxifen 2.5 μg/mouse 5 days per week for one month
Experimental: as §1
(§3) Samples were homogenized in cold lysis buffer (20 mM HEPES, 150 mM NaCl and 0.2% Igepal; sigma) and centrifuged at 12,000 rpm, for 15 min, at 4° C.). Proteins were separated by sodium dodecyl sulfate polyacrylamide gel electrophoresis (SDS-PAGE; 10%; Bio-Rad, Israel). […] Approximate molecular masses were determined by comparison with the migration of pre-stained protein standards (Bio-Rad). […] Intensity of the protein bands was quantified by Image J […] (NIH).

[7] = test system: CD34; experiment: CD34 immunohistochemical staining of uterine blood vessels, prolonged tamoxifen model; assay type: in vivo, mouse; conditions: prolonged tamoxifen alone vs control
Experimental: as §1
Paraffin-embedded sections were deparaffinized, microwave heated while being subjected to an antigen retrieval agent (H-3300, Vector Laboratories Inc., Burlingame, Calif., USA), cooled on ice to room temperature, rinsed in PBS, incubated for 1 hour with PBSTg (0.2% Tween and gelatin in PBS), washed with PBS, blocked for 10 minutes in blocking solution (Cell Marque Corporation, Calif., USA) and incubated overnight with anti PNPLA2 or anti-CD34 primary antibodies. […]

[8] = test system: ovariectomized (OVX) ICR mice; experiment: Uterine weight, sub-acute tamoxifen model in ovariectomized mice; assay type: in vivo, mouse; design: uterine weight: dose or concentration left out as unconfirmed; conditions: tamoxifen 0.3-3.3 daily for 7 days
Experimental: as §1, §2

[9] = test system: Laminin receptor; experiment: Uterine Laminin receptor mRNA (qPCR), sub-acute tamoxifen model; assay type: in vivo, mouse; conditions: sub-acute tamoxifen treatment
[10] = test system: PEDF; experiment: Uterine PEDF protein (western blot), sub-acute tamoxifen model; assay type: in vivo, mouse; conditions: tamoxifen daily for 7 days, increasing doses
[11] = test system: PEDF; experiment: Uterine PEDF protein (western blot), prolonged tamoxifen model; assay type: in vivo; conditions: tamoxifen 2.5 μg/mouse 5 days per week for one month
[12] = test system: VEGF; experiment: Uterine VEGF protein (western blot), sub-acute tamoxifen model; assay type: in vivo, mouse; conditions: tamoxifen daily for 7 days, various concentrations
Experimental: as §1, §3

[13] = test system: ERα; experiment: Uterine ERα mRNA (qPCR), sub-acute tamoxifen model; assay type: in vivo, mouse; conditions: sub-acute tamoxifen treatment
[14] = test system: Laminin receptor; experiment: Uterine Laminin receptor mRNA (qPCR), prolonged tamoxifen model; assay type: in vivo, mouse; conditions: one month of tamoxifen treatment
[15] = test system: ERα; experiment: Uterine ERα mRNA (qPCR), prolonged tamoxifen model; assay type: in vivo, mouse; conditions: prolonged tamoxifen treatment
[16] = test system: PNPLA2; experiment: Uterine PNPLA2 mRNA (qPCR), sub-acute tamoxifen model; assay type: in vivo, mouse; conditions: sub-acute tamoxifen treatment
Experimental: DXR damage was evaluated in 7 weeks ICR female mice following treatment for superovulation with pregnant mares' serum (PMSG, 7 IU) SC on day 0 and human chorionic gonadotropin (hCG, […]) SC on day 2. On day 1, mice were administered with DXR (6 mg/kg) or saline (control) IV. Mice ovaries were retrieved on day 3 (FIG. 1A). […] Mice ovaries were retrieved on day 7 (FIG. 2A). […] Mice uteri were excised at day 7.
Total RNA was isolated from various tissues (ovaries, eyes) or from granulosa cells, using Trizol reagent (Invitrogen) according to manufacturer's instructions, and quantified with the Nano-Drop spectrophotometer (ND-1000; Thermo Scientific). First-strand cDNA was produced by RT (Maxima™ Reverse transcriptase, Thermo Scientific) from a total of 1 μg RNA, using oligo-dt primers (Thermo Scientific). DNA was amplified using 1 μl RT reaction and 50 pmol gene-specific primers in ReadyMix™ mixture (Sigma). Polymerase Chain Reaction (PCR) products were separated by 1.5% agarose gel electrophoresis and visualized by ethidium bromide staining. Changes in the level of expression of mRNA were detected by SYBR green reagent (SYBR® Green PCR Master Mix, ABI, Carlsbad, Calif., USA) along with 15 ng cDNA and specific primers, on a StepOnePlus Real-Time PCR System (Applied Biosystems, Foster City, Calif., USA).

[17] = test system: PEDF mRNA; experiment: PEDF mRNA level (qPCR) in LH-15 cells exposed to H2O2; assay type: cell-based, rat; conditions: H2O2, 24 hours
Experimental: (§4) Rat granulosa cell line LH-15 [Suh et al. J Cell Biol (1992) 119: 439-450] was cultured in hormone-free DMEM-F12 medium, supplemented with penicillin (100 IU/ml; Biological Industries), streptomycin ([…]; Biological Industries) and 10% charcoal-stripped fetal bovine serum (CS-FBS; Invitrogen) (culture medium), as described previously (Breckwoldt et al. 1996, Sasson & Amsterdam 2002). Cells were serum-starved for 16 hours (0.1% CS-FBS) prior to and during recombinant PEDF (rPEDF) stimulation or incubated in 2% CS-FBS during H2O2 stimulation.
(§5) Total RNA was isolated from various tissues (ovaries, eyes) or from granulosa cells, using Trizol reagent (Invitrogen) according to manufacturer's instructions, and quantified with the Nano-Drop spectrophotometer (ND-1000; Thermo Scientific). First-strand cDNA was produced by RT (Maxima™ Reverse transcriptase, Thermo Scientific) from a total of 1 μg RNA, using oligo-dt primers (Thermo Scientific). DNA was amplified using 1 μl RT reaction and 50 pmol gene-specific primers in ReadyMix™ mixture (Sigma). […] Changes in the level of expression of mRNA were detected by SYBR green reagent (SYBR® Green PCR Master Mix, ABI, Carlsbad, Calif., USA) along with 15 ng cDNA and specific primers, on a StepOnePlus Real-Time PCR System (Applied Biosystems, Foster City, Calif., USA).

[18] = test system: LH-15 cells; experiment: MTT cell viability assay in LH-15 granulosa cells under H2O2; assay type: cell-based, rat; conditions: H2O2 100-500 μM, 24 hours, 2% serum
Experimental: as §4
Equal amount of LH-15 cells were seeded onto 6-well plates to a final volume of 500 μl. Following treatments, each well was incubated for 30 minutes with 10 μl of MTT [3-(4, 5-Dimethylthiazol-2-yl)-2, 5-diphenyltetrazolium bromide; 5 mg/ml] followed by an additional 2-4 hours incubation period at 37° C. The reaction was terminated by addition of 110 μl HCl (0.07 M in isopropanol) and OD 560 nm was measured by the SpectraMax 190 microplate reader ([…], Eugene, Oreg., USA).

[19] = test system: GPX-1; experiment: GPX-1 mRNA level (qPCR) in LH-15 cells under H2O2; assay type: cell-based, rat; conditions: H2O2 treatment alone, 24 hours
Experimental: as §4, §5

[20] = test system: BAX; experiment: BAX protein level (western blot) in LH-15 cells under H2O2; assay type: cell-based, rat; conditions: H2O2 treatment alone, 24 hours
Experimental: as §4
Samples were homogenized in cold lysis buffer (20 mM HEPES, 150 mM NaCl and 0.2% Igepal; sigma) and centrifuged at 12,000 rpm, for 15 min, at 4° C.). Proteins were separated by sodium dodecyl sulfate polyacrylamide gel electrophoresis (SDS-PAGE; 10%; Bio-Rad, Israel). Separated proteins were transferred onto nitrocellulose membranes (Whatman GmbH, Germany) in a mini tank transfer unit (TE 22, Amersham, UK). Approximate molecular masses were determined by comparison with the migration of pre-stained protein standards (Bio-Rad). Blots were blocked for 1 hour in TBST (10 mM Tris-HCl, pH=8.0, 150 mM NaCl, 0.05% Tween 20) containing 5% skim-milk (Alba, N.Y., USA) followed by an over-night incubation at 4° C. with primary antibodies. […] Intensity of the protein bands was quantified by Image J […] (NIH).

[21] = test system: SOD-1; experiment: SOD-1 mRNA level (qPCR) in LH-15 cells under H2O2; assay type: cell-based, rat; conditions: H2O2 treatment alone, 24 hours
Experimental: as §4, §5

COc1cccc2c1C(=O)c1c(O)c3c(c(O)c1C2=O)C[C@@](O)(C(=O)CO)C[C@@H]3O[C@H]1C[C@H](N)[C@H](O)[C@H](C)O1 [DXR, Doxorubicin]
PEDF mRNA level in mice ovaries [1]: significantly (P<0.05) reduced PEDF mRNA level

CC/C(=C(\c1ccccc1)c1ccc(OCCN(C)C)cc1)c1ccccc1 [tamoxifen]
PNPLA2 level in uteri [2]: significantly increased
PR expression in uteri [3]: no significant effect
uterine weight [4]: increase in uterine weight
PR mRNA level in uteri [5]: no significant effect
uterine VEGF protein level [6]: up-regulation of VEGF protein level
density of uterine blood vessels (CD34 staining) [7]: remarkable increase in the density of uterine blood vessels
uterine weight [8]: dose dependent increase
Laminin receptor mRNA level in uteri [9]: up-regulated
uterine PEDF protein expression [10]: down-regulated
uterine PEDF protein level [11]: down-regulation of PEDF protein level
uterine VEGF protein level [12]: up-regulated in a dose dependent manner
ERα mRNA level in uteri [13]: up-regulated
Laminin receptor level in uteri [14]: did not change significantly
ERα mRNA expression in uteri [15]: up-regulated
PNPLA2 receptor mRNA level in uteri [16]: up-regulated

OO [H2O2]
PEDF mRNA level in LH-15 cells [17]: significantly (P<0.01) reduced PEDF mRNA level, already at a concentration of 100 μM
cells viability (MTT) [18]: statistically significant (P<0.05), dose dependent, decrease in cells viability
GPX-1 mRNA level [19]: decreased
BAX level [20]: elevated
SOD-1 mRNA level [21]: decreased
